Assay results reported in US20250346600A1, “TRICYCLIC DERIVATIVES AND RELATED USES” (MOMA Therapeutics, Inc., priority 2023, published 2025).
Read-outs that look alike come from different tables or passages of the source.

How the values were obtained:
[1] = test system: HT29 cells; test: HT29 (MSS) 7 day viability, CellTiter Glo; type: cell-based; settings: 7 days, read-out: HT29 (MSS) Viability 7 Day CTGAbs AC50
How it was run: (§1)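 HCT116 (50 cells/well) or HT29 (500 cells/well) exposed 7 days at 37° C, 5% CO2, to 10-point 3-fold compound dilutions. Viability measured by CellTiter Glo luminescence, background from cell-free wells; IC50 from four-parameter logistic fit, geometric mean of at least 2 replicates.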

[2] = molecular target: T1, Full length WRN protein (aa 2-1432) (Homo sapiens (Human), UniProt Q14191); test: WRN ATPase ADP-Glo biochemical assay, Assay Format A (10 μM ATP); settings: 0.25 nM WRN, 100 nM C6.18 ssDNA, 30 min preincubation, read-out: ATPase ADPGlo AC50 (uM)- Assay Format A
T1 sequence (Q14191 2-1432): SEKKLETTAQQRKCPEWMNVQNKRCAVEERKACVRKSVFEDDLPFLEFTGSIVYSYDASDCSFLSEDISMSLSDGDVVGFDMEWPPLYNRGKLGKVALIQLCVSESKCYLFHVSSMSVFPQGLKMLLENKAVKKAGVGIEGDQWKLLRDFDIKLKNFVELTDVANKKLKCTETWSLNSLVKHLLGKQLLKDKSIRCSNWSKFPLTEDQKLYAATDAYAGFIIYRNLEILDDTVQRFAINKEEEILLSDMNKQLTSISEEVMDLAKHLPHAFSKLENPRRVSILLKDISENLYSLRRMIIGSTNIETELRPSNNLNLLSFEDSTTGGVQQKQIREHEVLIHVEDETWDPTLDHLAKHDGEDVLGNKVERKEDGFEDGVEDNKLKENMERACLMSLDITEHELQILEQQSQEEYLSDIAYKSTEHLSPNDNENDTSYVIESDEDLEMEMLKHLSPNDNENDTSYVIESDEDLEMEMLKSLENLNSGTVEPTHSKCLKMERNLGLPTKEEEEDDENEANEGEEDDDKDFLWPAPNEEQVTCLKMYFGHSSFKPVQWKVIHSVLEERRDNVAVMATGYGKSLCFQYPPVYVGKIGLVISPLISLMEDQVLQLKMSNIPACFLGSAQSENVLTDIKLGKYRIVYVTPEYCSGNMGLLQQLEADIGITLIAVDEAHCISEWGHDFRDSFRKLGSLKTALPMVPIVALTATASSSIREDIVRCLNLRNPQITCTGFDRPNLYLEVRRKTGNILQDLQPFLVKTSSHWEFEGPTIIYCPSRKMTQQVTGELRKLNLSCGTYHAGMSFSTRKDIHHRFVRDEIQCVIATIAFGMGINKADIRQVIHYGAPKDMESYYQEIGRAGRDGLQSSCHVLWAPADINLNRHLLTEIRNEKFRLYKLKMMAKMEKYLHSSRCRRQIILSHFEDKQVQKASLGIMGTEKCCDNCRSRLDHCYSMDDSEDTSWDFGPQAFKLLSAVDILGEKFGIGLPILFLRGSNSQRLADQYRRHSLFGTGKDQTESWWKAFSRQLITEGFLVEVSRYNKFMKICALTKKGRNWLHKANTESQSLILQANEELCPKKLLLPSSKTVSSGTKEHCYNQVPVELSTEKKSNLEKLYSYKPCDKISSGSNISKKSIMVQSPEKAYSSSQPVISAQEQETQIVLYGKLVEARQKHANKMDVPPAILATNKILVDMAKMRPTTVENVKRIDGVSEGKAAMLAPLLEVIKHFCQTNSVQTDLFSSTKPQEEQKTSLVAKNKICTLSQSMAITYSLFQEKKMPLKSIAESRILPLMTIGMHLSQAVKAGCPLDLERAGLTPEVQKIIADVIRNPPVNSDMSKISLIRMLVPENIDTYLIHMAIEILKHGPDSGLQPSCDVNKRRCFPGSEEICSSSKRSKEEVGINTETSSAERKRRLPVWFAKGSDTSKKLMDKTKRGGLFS
How it was run: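 Sf9-expressed FLAG-AVI-TEV-tagged WRN (0.5 nM) preincubated 30 min with compound (11-point 3-fold dilution). Reaction started with 200 nM C6.18 39-mer ssDNA and 20 μM ATP (addition concentrations), run 30 min at room temperature. ADP measured by ADP-Glo luminescence; IC50 from four-parameter fit, geometric mean of ≥2 runs.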

[3] = test system: HCT116 cells; test: HCT116 (MSI) 7 day viability, CellTiter Glo; type: cell-based; settings: 7 days, read-out: HCT116 (MSI) Viability 7 Day Abs AC50
How it was run: as §1

[4] = molecular target: T1, Full length WRN protein (aa 2-1432); test: WRN ATPase ADP-Glo biochemical assay, Assay Format B (100 μM ATP); settings: 0.25 nM WRN, 100 nM C6.18 ssDNA, 60 min preincubation, read-out: ATPase ADPGlo AC50 (uM)- Assay Format B

| AC50 [2] | AC50 [4] | SMILES | AC50 ([1]; Homo sapiens, HT-29, 168 h) | AC50 ([3]; Homo sapiens, HCT-116, 168 h) | AC50 [1] | AC50 [3] |
| --- | --- | --- | --- | --- | --- | --- |
| 0.005 to 0.015 µM | > 0.055 µM | C=CC(=O)N1CCc2nn(-c3ccc(C(C)C)cc3)c3c2C(C1)N(C(=O)c1ccc(Br)c2ncn(CC4CCO4)c12)CC3 (stereo not drawn) [Compound 82, 1-(5-(4-bromo-1-((oxetan-2-yl)methyl)-1H-benzo[d]imidazole-7-carbonyl)-2-(4-isopropylphenyl)-2,3,4,5,5a,6,8,9-octahydro-7H-1,2,5,7-tetraazabenzo[cd]azulen-7-yl)prop-2-en-1-one] | > 3000 nM | 500 to 1000 nM | – | – |
| 0.005 to 0.015 µM | > 0.055 µM | C=CC(=O)N1CCc2nn(-c3ccc(C(C)C)cc3)c3c2C(C1)N(C(=O)c1ccc(Br)c2ncn(CC4CCO4)c12)CC3 (stereo not drawn) [Compound 83, 1-(5-(4-bromo-1-((oxetan-2-yl)methyl)-1H-benzo[d]imidazole-7-carbonyl)-2-(4-isopropylphenyl)-2,3,4,5,5a,6,8,9-octahydro-7H-1,2,5,7-tetraazabenzo[cd]azulen-7-yl)prop-2-en-1-one] | – | – | > 3000 nM | 500 to 1000 nM |
| 0.0015 to 0.005 µM | 0.015 to 0.055 µM | C=CC(=O)N1CCc2nn(-c3ccc(C45CC(C4)C5)c(F)c3)c3c2C(C1)N(C(=O)c1ccc(Br)c2[nH]cnc12)CC3 (stereo not drawn) [Compound 84, 1-(2-(4-(bicyclo[1.1.1]pentan-1-yl)-3-fluorophenyl)-5-(7-bromo-1H-benzo[d]imidazole-4-carbonyl)-2,3,4,5,5a,6,8,9-octahydro-7H-1,2,5,7-tetraazabenzo[cd]azulen-7-yl)prop-2-en-1-one] | > 3000 nM | 1 to 100 nM | – | – |
| < 0.0015 µM | 0.015 to 0.055 µM | C=CC(=O)N1CCc2nc(-c3ccc(C4CCC4)cc3)n3c2C(C1)N(C(=O)c1cnc(C(F)(F)F)c(O)c1)CC3 (stereo not drawn) [Compound 86, 1-(2-(4-cyclobutylphenyl)-5-(5-hydroxy-6-(trifluoromethyl)nicotinoyl)-4,5,5a,6,8,9-hexahydro-1,2a,5,7-tetraazabenzo[cd]azulen-7(3H)-yl)prop-2-en-1-one] | > 3000 nM | 250 to 500 nM | – | – |
| < 0.0015 µM | 0.005 to 0.015 µM | C=CC(=O)N1CCc2nn(-c3ccc(C4CCC4)cc3O)c3c2C(C1)N(C(=O)c1ccc(OC(F)(F)F)nc1)CC3 (stereo not drawn) [Compound 93, 1-(2-(4-cyclobutyl-2-hydroxyphenyl)-5-(6-(trifluoromethoxy)nicotinoyl)-2,3,4,5,5a,6,8,9-octahydro-7H-1,2,5,7-tetraazabenzo[cd]azulen-7-yl)prop-2-en-1-one] | > 3000 nM | 1 to 100 nM | – | – |
| < 0.0015 µM | 0.005 to 0.015 µM | C=CC(=O)N1CCc2nn(-c3ccc(C4CCC4)cc3O)c3c2C(C1)N(C(=O)c1ccc(C(F)(F)F)nc1)CC3 (stereo not drawn) [Compound 96, 1-(2-(4-cyclobutyl-2-hydroxyphenyl)-5-(6-(trifluoromethyl)nicotinoyl)-2,3,4,5,5a,6,8,9-octahydro-7H-1,2,5,7-tetraazabenzo[cd]azulen-7-yl)prop-2-en-1-one] | > 3000 nM | 1 to 100 nM | – | – |
| 0.0015 to 0.005 µM | 0.015 to 0.055 µM | C=CC(=O)N1CCc2nn(-c3ccc(C4CC4)c(F)c3O)c3c2C(C1)N(C(=O)c1cnc(C(F)(F)F)c(O)c1)CC3 (stereo not drawn) [Compound 100, 1-(2-(4-cyclopropyl-3-fluoro-2-hydroxyphenyl)-5-(5-hydroxy-6-(trifluoromethyl)nicotinoyl)-2,3,4,5,5a,6,8,9-octahydro-7H-1,2,5,7-tetraazabenzo[cd]azulen-7-yl)prop-2-en-1-one] | > 3000 nM | 100 to 250 nM | – | – |
| 0.0015 to 0.005 µM | 0.015 to 0.055 µM | C=CC(=O)N1CCc2nn(-c3ccc(C45CC(C4)C5)c(F)c3O)c3c2C(C1)N(C(=O)c1cnc(C(F)(F)F)c(O)c1)CC3 (stereo not drawn) [Compound 101, 1-(2-(4-(bicyclo[1.1.1]pentan-1-yl)-3-fluoro-2-hydroxyphenyl)-5-(5-hydroxy-6-(trifluoromethyl)nicotinoyl)-2,3,4,5,5a,6,8,9-octahydro-7H-1,2,5,7-tetraazabenzo[cd]azulen-7-yl)prop-2-en-1-one] | > 3000 nM | 100 to 250 nM | – | – |

Second part, the compound before the results:

| SMILES | AC50 [2] | AC50 [4] | AC50 ([1]; Homo sapiens, HT-29, 168 h) | AC50 ([3]; Homo sapiens, HCT-116, 168 h) | AC50 [1] | AC50 [3] |
| --- | --- | --- | --- | --- | --- | --- |
| C=CC(=O)N1CCc2nn(-c3ccc(C4CCC4)cc3O)c3c2C(C1)N(C(=O)c1ccc(Br)c2[nH]ncc12)CC3 (stereo not drawn) [Compound 87, 1-(5-(7-bromo-1H-indazole-4-carbonyl)-2-(4-cyclobutyl-2-hydroxyphenyl)-2,3,4,5,5a,6,8,9-octahydro-7H-1,2,5,7-tetraazabenzo[cd]azulen-7-yl)prop-2-en-1-one] | < 0.0015 µM | 0.0015 to 0.005 µM | > 3000 nM | 1 to 100 nM | – | – |
| C=CC(=O)N1CCc2nn(-c3ccc(C4CCC4)cc3O)c3c2C(C1)N(C(=O)c1cnc(C(F)(F)F)c(SC)c1)CC3 (stereo not drawn) [Compound 89, 1-(2-(4-cyclobutyl-2-hydroxyphenyl)-5-(5-(methylthio)-6-(trifluoromethyl)nicotinoyl)-2,3,4,5,5a,6,8,9-octahydro-7H-1,2,5,7-tetraazabenzo[cd]azulen-7-yl)prop-2-en-1-one] | < 0.0015 µM | 0.015 to 0.055 µM | > 3000 nM | 1 to 100 nM | – | – |
| C=CC(=O)N1CCc2nn(-c3ccc(C4CCC4)cc3O)c3c2C(C1)N(C(=O)c1ccc(Br)c2nc(C(F)F)[nH]c12)CC3 (stereo not drawn) [Compound 90, 1-(5-(4-bromo-2-(difluoromethyl)-1H-benzo[d]imidazole-7-carbonyl)-2-(4-cyclobutyl-2-hydroxyphenyl)-2,3,4,5,5a,6,8,9-octahydro-7H-1,2,5,7-tetraazabenzo[cd]azulen-7-yl)prop-2-en-1-one] | < 0.0015 µM | 0.005 to 0.015 µM | > 3000 nM | 1 to 100 nM | – | – |
| C=CC(=O)N1CCc2nn(-c3ccc(C4CCC4)c(O)c3)c3c2C(C1)N(C(=O)c1cnc(C(F)(F)F)c(O)c1)CC3 (stereo not drawn) [Compound 91, 1-(2-(4-cyclobutyl-3-hydroxyphenyl)-5-(5-hydroxy-6-(trifluoromethyl)nicotinoyl)-2,3,4,5,5a,6,8,9-octahydro-7H-1,2,5,7-tetraazabenzo[cd]azulen-7-yl)prop-2-en-1-one] | < 0.0015 µM | 0.005 to 0.015 µM | > 3000 nM | 250 to 500 nM | – | – |
| C=CC(=O)N1CCc2nn(-c3ccc(C45CC(C4)C5)cc3O)c3c2C(C1)N(C(=O)c1cnc(C(F)(F)F)c(O)c1)CC3 (stereo not drawn) [Compound 92, 1-(2-(4-(bicyclo[1.1.1]pentan-1-yl)-2-hydroxyphenyl)-5-(5-hydroxy-6-(trifluoromethyl)nicotinoyl)-2,3,4,5,5a,6,8,9-octahydro-7H-1,2,5,7-tetraazabenzo[cd]azulen-7-yl)prop-2-en-1-one] | < 0.0015 µM | 0.015 to 0.055 µM | > 3000 nM | 1 to 100 nM | – | – |
| C=CC(=O)N1CCc2nn(-c3ccc(C4CCC4)cc3O)c3c2C(C1)N(C(=O)c1ncc(Br)c2[nH]cnc12)CC3 (stereo not drawn) [Compound 95, 1-(5-(7-bromo-1H-imidazo[4,5-c]pyridine-4-carbonyl)-2-(4-cyclobutyl-2-hydroxyphenyl)-2,3,4,5,5a,6,8,9-octahydro-7H-1,2,5,7-tetraazabenzo[cd]azulen-7-yl)prop-2-en-1-one] | < 0.0015 µM | 0.0015 to 0.005 µM | > 3000 nM | 1 to 100 nM | – | – |
| C=CC(=O)N1CCc2nn(-c3ccc(C4CCC4)cc3O)c3c2C(C1)N(C(=O)c1ccc(C(F)(F)F)c2[nH]ncc12)CC3 (stereo not drawn) [Compound 97, 1-(2-(4-cyclobutyl-2-hydroxyphenyl)-5-(7-(trifluoromethyl)-1H-indazole-4-carbonyl)-2,3,4,5,5a,6,8,9-octahydro-7H-1,2,5,7-tetraazabenzo[cd]azulen-7-yl)prop-2-en-1-one] | < 0.0015 µM | 0.005 to 0.015 µM | > 3000 nM | 1 to 100 nM | – | – |
